Drawing on patent EP2508526A1, “Spiroalkene carboxamide derivatives and their use as chemokine receptor modulators” (Ares Trading SA, priority 2011, dated 2012), this text covers Ki for 22 compounds.

The experiment has as its target T1, hCCR2b (Homo sapiens, UniProt P41597).
T1 sequence (P41597 1-360 isoform P41597-2): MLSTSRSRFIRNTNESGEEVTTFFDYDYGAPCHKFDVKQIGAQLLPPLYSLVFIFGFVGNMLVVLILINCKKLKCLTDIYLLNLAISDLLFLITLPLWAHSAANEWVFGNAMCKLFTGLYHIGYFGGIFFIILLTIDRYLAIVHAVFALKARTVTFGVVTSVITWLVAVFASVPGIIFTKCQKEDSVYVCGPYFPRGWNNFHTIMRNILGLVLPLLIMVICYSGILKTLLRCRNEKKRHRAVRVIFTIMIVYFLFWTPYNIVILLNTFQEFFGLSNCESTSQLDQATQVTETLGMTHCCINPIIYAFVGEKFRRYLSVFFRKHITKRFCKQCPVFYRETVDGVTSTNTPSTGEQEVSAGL
Description: CCR2 binding assay ([125I]MCP-1, SPA, CHO cell membranes). The arrangement: expressed in transfected cells; host or cells: CHO cells (membrane preparation). Conditions: membranes from CHO cells expressing hCCR2b, 50 pM [125I]MCP-1; read-out: Binding hCCR2 (Ki). The essentials:
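CHO membranes expressing hCCR2b (1–5 µg/well) with 50 pM [125I]MCP-1 and WGA SPA beads in 50 mM HEPES pH 7.4, 5 mM MgCl2, 1 mM CaCl2, 0.1% BSA, 1% DMSO; 90 min RT with agitation. Bound counts on scintillation counter; nonspecific defined by 1000-fold excess unlabeled compound.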

SMILES strings stand for the structures. Where a name gives a salt, the structure may show the parent alone.

As a reminder, the Ki is a measure of affinity in units of concentration, obtained from inhibition or displacement. For the compound `CC1=C(C(=O)N2CCN(c3cccc(C(F)(F)F)c3)CC2)C2(CCN(CC(C)C)CC2)OC1=O` [Compound 103, 8-isobutyl-3-methyl-4-({4-[3-(trifluoromethyl)phenyl]piperazin-1-yl}carbonyl)-1-oxa-8-azaspiro[4.5]dec-3-en-2-one], the Ki was less than 50 nM.

Consider `CC1=C(C(=O)N2CCN(c3cccc(C(F)(F)F)c3)CC2)C2(CCN(C(C)Cc3ccccc3)CC2)OC1=O` (stereo not shown) [Compound 104, 3-methyl-8-(1-methyl-2-phenylethyl)-4-({4-[3-(trifluoromethyl)phenyl]piperazin-1-yl}carbonyl)-1-oxa-8-azaspiro[4.5]dec-3-en-2-one], for which the Ki is less than 50 nM.

`CC1=C(C(=O)N2CCN(c3cccc(C(F)(F)F)c3)CC2)C2(CCN(CC(C)c3ccccc3)CC2)OC1=O` (stereo not shown) [Compound 105, 3-methyl-8-(2-phenylpropyl)-4-({4-[3-(trifluoromethyl)phenyl]piperazin-1-yl}carbonyl)-1-oxa-8-azaspiro[4.5]dec-3-en-2-one]: the Ki is less than 50 nM.

Consider `CC1=C(C(=O)N2CCN(c3cccc(C(F)(F)F)c3)CC2)C2(CCN(C3CCCCC3)CC2)OC1=O` [Compound 106, 8-cyclohexyl-3-methyl-4-({4-[3-(trifluoromethyl)phenyl]piperazin-1-yl}carbonyl)-1-oxa-8-azaspiro[4.5]dec-3-en-2-one], for which the Ki is less than 50 nM.

As to `CC1=C(C(=O)N2CCN(c3cccc(C(F)(F)F)c3)CC2)C2(CCN(Cc3cc4ccccc4[nH]3)CC2)OC1=O` [Compound 107, 8-(1H-indol-2-ylmethyl)-3-methyl-4-({4-[3-(trifluoromethyl)phenyl]piperazin-1-yl}carbonyl)-1-oxa-8-azaspiro[4.5]dec-3-en-2-one], the Ki fell in the range of 500 to 2000 nM.

Regarding `CC1=C(C(=O)N2CCN(c3cccc(C(F)(F)F)c3)CC2)C2(CCN(CC(=O)c3ccccc3)CC2)OC1=O` [Compound 108, 3-methyl-8-(2-oxo-2-phenylethyl)-4-({4-[3-(trifluoromethyl)phenyl]piperazin-1-yl}carbonyl)-1-oxa-8-azaspiro[4.5]dec-3-en-2-one], the Ki fell in the range of 100 to 500 nM.

For the compound `CC1=C(C(=O)N2CCN(c3cccc(C(F)(F)F)c3)CC2)C2(CCN(Cc3ccccc3)CC2)OC1=O` [Compound 109, 8-benzyl-3-methyl-4-({4-[3-(trifluoromethyl)phenyl]piperazin-1-yl}carbonyl)-1-oxa-8-azaspiro[4.5]dec-3-en-2-one], the Ki lay in the range of 100 to 500 nM.

As for `CC1=C(C(=O)N2CCN(c3cccc(Cl)c3)CC2)C2(CCN(Cc3ccccc3)CC2)OC1=O` [Compound 110, 8-benzyl-4-{[4-(3-chlorophenyl)piperazin-1-yl]carbonyl}-3-methyl-1-oxa-8-azaspiro[4.5]dec-3-en-2-one], the Ki lay in the range of 500 to 2000 nM.

With `CC1=C(C(=O)N2CCN(c3cccc(C#N)c3)CC2)C2(CCN(Cc3ccccc3)CC2)OC1=O` [Compound 111, 3-{4-[(8-benzyl-3-methyl-2-oxo-1-oxa-8-azaspiro[4.5]dec-3-en-4-yl)carbonyl]piperazin-1-yl}benzonitrile], the Ki lay in the range of 500 to 2000 nM.

For `CC1=C(C(=O)N2CCN(c3cccc(Cl)c3)CC2)C2(CCN(C)CC2)OC1=O` [Compound 112, 4-{[4-(3-chlorophenyl)piperazin-1-yl]carbonyl}-3,8-dimethyl-1-oxa-8-azaspiro[4.5]dec-3-en-2-one], the Ki fell in the range of 500 to 2000 nM.

For the compound `CCN1CCC2(CC1)OC(=O)C(C)=C2C(=O)N1CCN(c2ccc(C(F)(F)F)cc2)CC1` [Compound 113, 8-ethyl-3-methyl-4-({4-[4-(trifluoromethyl)phenyl]piperazin-1-yl}carbonyl)-1-oxa-8-azaspiro[4.5]dec-3-en-2-one], the Ki fell in the range of 500 to 2000 nM.

For the compound `CCN1CCC2(CC1)OC(=O)C(C)=C2C(=O)N1CCN(c2cc(Cl)cc(Cl)c2)CC1` [Compound 114, 4-{[4-(3,5-dichlorophenyl)piperazin-1-yl]carbonyl}-8-ethyl-3-methyl-1-oxa-8-azaspiro[4.5]dec-3-en-2-one], the Ki was 100 to 500 nM.

Turning to `CC1=C(C(=O)N2CCc3ncc(C(F)(F)F)cc3C2)C2(CCN(C(C)C)CC2)OC1=O` [Compound 115, 8-isopropyl-3-methyl-4-{[3-(trifluoromethyl)-7,8-dihydro-1,6-naphthyridin-6(5H)-yl]carbonyl}-1-oxa-8-azaspiro[4.5]dec-3-en-2-one], the Ki is less than 50 nM.

On to `CC1=C(C(=O)N2CCc3ncc(C(F)(F)F)cc3C2)C2(CCN(CCF)CC2)OC1=O` [Compound 116, 8-(2-fluoroethyl)-3-methyl-4-{[3-(trifluoromethyl)-7,8-dihydro-1,6-naphthyridin-6(5H)-yl]carbonyl}-1-oxa-8-azaspiro[4.5]dec-3-en-2-one], for which the Ki was less than 50 nM.

Turning to `CC1=C(C(=O)N2CCN(c3cccc(C(F)(F)F)c3)CC2)C2(CCN(C(C)C)C2)OC1=O` (stereo not shown) [Compound 117, 7-isopropyl-3-methyl-4-({4-[3-(trifluoromethyl)phenyl]piperazin-1-yl}carbonyl)-1-oxa-7-azaspiro[4.4]non-3-en-2-one], the Ki was less than 50 nM.

As to `CCN1CCC2(C1)OC(=O)C(C)=C2C(=O)N1CCN(c2cccc(C(F)(F)F)c2)CC1` (stereo not shown) [Compound 118, 7-ethyl-3-methyl-4-({4-[3-(trifluoromethyl)phenyl]piperazin-1-yl}carbonyl)-1-oxa-7-azaspiro[4.4]non-3-en-2-one], the Ki fell in the range of 50 to 100 nM.

Regarding `CC1=C(C(=O)N2CCc3ncc(C(F)(F)F)cc3C2)C2(CCN(C3CCOCC3)CC2)OC1=O` [Compound 119, 3-methyl-8-(tetrahydro-2H-pyran-4-yl)-4-{[3-(trifluoromethyl)-7,8-dihydro-1,6-naphthyridin-6(5H)-yl]carbonyl}-1-oxa-8-azaspiro[4.5]dec-3-en-2-one], the Ki is less than 50 nM.

As to `CCN1CCCC2(CC1)OC(=O)C(C)=C2C(=O)N1CCc2ccc(C(F)(F)F)cc2C1` (stereo not shown) [Compound 120, 8-ethyl-3-methyl-4-{[7-(trifluoromethyl)-3,4-dihydroisoquinolin-2(1H)-yl]carbonyl}-1-oxa-8-azaspiro[4.6]undec-3-en-2-one], the Ki is less than 50 nM.

With `CCN1CCCC2(CC1)OC(=O)C(C)=C2C(=O)N1CCN(c2cccc(C(F)(F)F)c2)CC1` (stereo not shown) [Compound 121, 8-ethyl-3-methyl-4-({4-[3-(trifluoromethyl)phenyl]piperazin-1-yl}carbonyl)-1-oxa-8-azaspiro[4.6]undec-3-en-2-one], the Ki is less than 50 nM.

As for `CC1=C(C(=O)N2CCc3ncc(C(F)(F)F)cc3C2)C2(CCN(C)CC2)OC1=O` [Compound 122, 3,8-dimethyl-4-{[3-(trifluoromethyl)-7,8-dihydro-1,6-naphthyridin-6(5H)-yl]carbonyl}-1-oxa-8-azaspiro[4.5]dec-3-en-2-one], the Ki is less than 50 nM.

Take `CC1=C(C(=O)N2CCN(c3cccc(C(F)(F)F)c3)CC2)C2(CCNCC2)OC1=O` [Example 1, 3-methyl-4-({4-[3-(trifluoromethyl)phenyl]piperazin-1-yl}carbonyl)-1-oxa-8-azaspiro[4.5]dec-3-en-2-one, dihydrochloride salt]: the inhibitory constant (Ki) lay within 100 to 500 nM.

On to `COCCCN1CCC2(CC1)OC(=O)C(C)=C2C(=O)N1CCN(c2cccc(C(F)(F)F)c2)CC1` [Example 2, 8-(3-methoxypropyl)-3-methyl-4-({4-[3-(trifluoromethyl)phenyl]piperazin-1-yl}carbonyl)-1-oxa-8-azaspiro[4.5]dec-3-en-2-one], for which the Ki is less than 50 nM.
